System: mast cells
Assay: Active anaphylaxis method to evaluate mast cell count
Format: in vivo, rat
Conditions: sensitized rats

C[C@]12C=CC(=O)C=C1CC[C@@H]1[C@@H]2[C@@H](O)C[C@@]2(C)[C@H]1CC[C@]2(O)C(=O)CO [Standard, Prednisolone]
Degranulation (% mean +/- SEM) of mast cells, 21st day sacrifice, central zone (no treatment day 14 to 21, 21st day sacrifice, central zone): 29.4 ± 7.2 % | Degranulation (% mean +/- SEM) of mast cells, 21st day sacrifice, peripheral zone (no treatment day 14 to 21, 21st day sacrifice, peripheral zone): 37.51 ± 8.3 % | Degranulation (% mean +/- SEM) of mast cells, 13th day sacrifice, central zone (oral treatment day 5 to 13, 13th day sacrifice, central zone): 8.4 ± 2.0 % | Degranulation (% mean +/- SEM) of mast cells, 13th day sacrifice, peripheral zone (oral treatment day 5 to 13, 13th day sacrifice, peripheral zone): 8.7 ± 1.621 %

— patent US20030096020A1, “Novel herbal composition for the management of bronchial asthma and a process of manufacturing the same” (priority 2001, published 2003)
